How the values were obtained:
[1] = tested on: T-Rex 293 cell line SC3 cells having increased expression of androgen receptor protein due to exposure to doxycycline; test: Cellular growth inhibition, T-Rex 293 SC3 cells with doxycycline (increased androgen receptor expression), CellTiter-Glo; format: cell-based; settings: T-Rex 293 SC3 cells with 10 ng/mL doxycycline (increased androgen receptor expression), 72 hours, CellTiter-Glo 2.0
How it was run: (§1)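 Doxycycline (10 ng/mL) was either included or omitted to toggle wild-type androgen receptor expression in SC3 cells, a T-Rex 293 clone, grown in stripped-serum, phenol red-free medium. After 72 hours with compound, viable cells were quantified by CellTiter-Glo 2.0.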

[2] = tested on: T-Rex 293 cell line SC3 cells lacking increased expression of androgen receptor protein; test: Cellular growth inhibition, T-Rex 293 SC3 cells without doxycycline (no increased androgen receptor expression), CellTiter-Glo; format: cell-based; settings: T-Rex 293 SC3 cells not exposed to doxycycline (no increased androgen receptor expression), 72 hours
How it was run: as §1

[3] = tested on: T-Rex 293 cell line SC cells having increased expression of progesterone receptor isoform B protein; test: Cellular growth inhibition assay, T-Rex 293 SC cells exposed to doxycycline (increased progesterone receptor isoform B expression), CellTiter-Glo; format: cell-based; settings: T-Rex 293 SC cells with 10 ng/mL doxycycline (increased PR isoform B), 72 hours
Procedure: (§2) The SC cells were seeded on poly-D-lysine coated, black clear-bottom 384-well plates at 2500/well, in 25 μL Phenol Red Free Dulbecco's Modified Eagle Medium (DMEM) supplemented with 10% w/w charcoal-dextran treated fetal bovine serum (FBS) and 1% w/w pen-strep, with or without 10 ng/mL doxycycline. Pen-Strep is a commercially available mixture of penicillin G and streptomycin, which is used in mammalian cell culture media to prevent bacterial contamination. Phenol Red Free Dulbecco's Modified Eagle Medium (DMEM) supplemented with 10% w/w charcoal-dextran treated fetal bovine serum (FBS) and 1% w/w pen-strep, with or without 10 ng/mL doxycycline is herein referred to as Treatment Medium. Following seeding of cells in the plates, the plates were spun at 300×g for 30 seconds, then equilibrated to room temperature for 30 minutes, and then deposited in a humidified tissue culture incubator maintained at 37° C. with 5% CO2.
(§3) At 24 hours after seeding of the cells, dilutions of test compound were prepared in DMSO and dissolved in Treatment Medium, to achieve a final DMSO concentration of 0.5% w/w, thereby providing the Test Compound Solution. A 25 μL aliquot of the Test Compound Solution was added to cells in the well plates. An equal volume of a solution containing DMSO and Treatment Medium was used as a negative control. Following treatment of cells with Test Compound Solution or said equal volume of a solution containing DMSO and Treatment Medium, the plates were spun at 300×g for 30 seconds, and then left in an incubator for 72 hours.
(§4) At the end of the treatment duration, cell viability was quantified with CellTiter-Glo 2.0 reagent (Promega Cat #G9243). For this purpose, plates were equilibrated to room temperature for 30 minutes, and then 25 μL of CellTiter-Glo 2.0 reagent was added to cells in the plate wells. Plates were then agitated on a shaker for two minutes at 500 rpm and subsequently incubated at room temperature for 10 minutes. Following incubation, the plates were spun at 3000×g for 30 seconds, then sealed with an optical adhesive cover, and luminescence readings were measured with an EnVision Plate Reader (Perkin Elmer).
(§5) Data was normalized using zero luminescence for baseline. A four-parameter non-linear regression curve fit was applied to dose-response data in GraphPad Prism data analysis software to determine the half-maximal growth inhibitory concentration (GI50) for each test compound.

[4] = tested on: T-Rex 293 cell line SC cells lacking increased expression of progesterone receptor isoform B protein; test: Cellular growth inhibition assay, T-Rex 293 SC cells not exposed to doxycycline (no increased progesterone receptor isoform B expression), CellTiter-Glo; format: cell-based; settings: T-Rex 293 SC cells without doxycycline (no increased PR isoform B), 72 hours
Procedure: as §2, §3, §4, §5

VCaP cells = test: Cellular growth inhibition assay for VCaP cells, CellTiter-Glo; format: cell-based, human; settings: 72 hours
How it was run: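 GI50 values come from four-parameter curve fits of luminescence data normalized to a zero baseline. Compound, in medium with 0.5% DMSO, was added one day after plating and left for 72 h before CellTiter-Glo 2.0 addition.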

T47D cells = test: Cellular Growth Inhibition Assay for T47D Cells (CellTiter-Glo); format: cell-based, human; settings: 72 hours
How it was run: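 GI50 values derive from four-parameter regression of CellTiter-Glo 2.0 luminescence, using zero luminescence as baseline. Human breast cancer T47D cells (3000/well; DMEM, 10% FBS, 0.2 units/mL insulin) were exposed for 72 h to compound dilutions at 0.5% DMSO, with dosing starting 24 h after seeding.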

BRD4-BD2 = molecular target: T1, BRD4-BD2 (Homo sapiens, UniProt O60885); test: Binding affinity to BRD4-BD2 (bromoKdELECT assay); settings: 11-point 3-fold dilution series
T1 construct: made in house; host or cells: T7 phage grown in an E. coli host derived from the BL21 strain
Procedure: (§6) Compounds were tested using a bromoKdELECT assay. T7 phage strains displaying bromodomains were grown in parallel in 24-well blocks in an E. coli host derived from the BL21 strain. E. coli were grown to log-phase and infected with T7 phage from a frozen stock (multiplicity of infection=0.4) and incubated with shaking at 32° C. until lysis (90-150 minutes). The lysates were centrifuged (5,000×g) and filtered ([…]) to remove cell debris. Streptavidin-coated magnetic beads were treated with biotinylated small molecule or acetylated peptide ligands for 30 minutes at room temperature to generate affinity resins for bromodomain assays. The liganded beads were blocked with excess biotin and washed with blocking buffer (SeaBlock (Pierce), 1% BSA, 0.05% Tween 20, 1 mM DTT) to remove unbound ligand and to reduce nonspecific phage binding. Binding reactions were assembled by combining bromodomains, liganded affinity beads, and test compounds in 1× binding buffer (17% SeaBlock, 0.33×PBS, 0.04% Tween 20, 0.02% BSA, 0.004% Sodium azide, 7.4 mM DTT). Test compounds were prepared as 1000× stocks in 100% DMSO. Kds were determined using an 11-point 3-fold compound dilution series with one DMSO control point. All compounds for Kd measurements are distributed by acoustic transfer (non-contact dispensing) in 100% DMSO. The compounds were then diluted directly into the assays such that the final concentration of DMSO was 0.09%. All reactions performed in polypropylene 384-well plates. Each was a final volume of 0.02 ml. The assay plates were incubated at room temperature with shaking for 1 hour and the affinity beads were washed with wash buffer (1×PBS, 0.05% Tween 20). The beads were then resuspended in elution buffer (1×PBS, 0.05% Tween 20, 2 μM non-biotinylated affinity ligand) and incubated at room temperature with shaking for 30 minutes. The bromodomain concentration in the eluates was measured by qPCR.

BRD4-BD1 = molecular target: T2, BRD4-BD1 (Homo sapiens, UniProt O60885); test: Binding affinity to BRD4-BD1 (bromoKdELECT assay); settings: 11-point 3-fold dilution series
T2 construct: made in house; host or cells: T7 phage grown in an E. coli host derived from the BL21 strain
Procedure: as §6, with “[…]” for “μM”

CN(CCCOc1ccc(Oc2ccc(C(C)(C)O)cc2-c2cn(C)c(=O)c3[nH]ccc23)cc1)c1ncc(C(=O)N[C@H]2C(C)(C)[C@H](Oc3ccc(C#N)c(Cl)c3)C2(C)C)cn1 [Compound I-200]
GI50 [1]: < 500 nM | GI50 [2]: 500 to 1500 nM | GI50 [3]: < 500 nM | GI50 [4]: < 500 nM | GI50 (VCaP cells; Homo sapiens): < 500 nM | GI50 (T47D cells; Homo sapiens): 500 to 1500 nM

CCS(=O)(=O)c1ccc(Oc2ccc(OCC3CCN(c4ncc(C(=O)N[C@H]5C(C)(C)[C@H](Oc6ccc(C#N)c(Cl)c6)C5(C)C)cn4)CC3)cc2)c(-c2cn(C)c(=O)c3[nH]ccc23)c1 [Compound I-213]
GI50 [1]: < 500 nM | GI50 [2]: < 500 nM | GI50 [3]: < 500 nM | GI50 [4]: < 500 nM | GI50 (VCaP cells): < 500 nM | GI50 (T47D cells): < 500 nM

Cn1cc(-c2cc(C(C)(C)O)ccc2Oc2ccc(N3CC(CC4CN(c5ccc(C(=O)N[C@H]6C(C)(C)[C@H](Oc7ccc(C#N)c(Cl)c7)C6(C)C)nc5)C4)C3)cc2)c2cc[nH]c2c1=O [Compound I-322]
GI50 [1]: < 500 nM | GI50 [2]: 1500 to 3000 nM | GI50 [3]: < 500 nM | GI50 [4]: 1500 to 3000 nM | GI50 (VCaP cells): 500 to 1500 nM | GI50 (T47D cells): < 500 nM

Cn1cc(-c2cc(C(C)(C)O)ccc2Oc2ccc(CC3CC4(CCN(c5ncc(C(=O)N[C@H]6C(C)(C)[C@H](Oc7ccc(C#N)c(Cl)c7)C6(C)C)cn5)CC4)C3)cc2)c2cc[nH]c2c1=O [Compound I-279]
GI50 [1]: < 500 nM | GI50 [2]: > 3000 nM | GI50 [3]: < 500 nM | GI50 [4]: > 3000 nM | GI50 (VCaP cells; Homo sapiens): < 500 nM

CN(c1ccc(Oc2cccc(OCCOC3CCN(c4ncc(C(=O)N[C@H]5C(C)(C)[C@H](Oc6ccc(C#N)c(Cl)c6)C5(C)C)cn4)CC3)c2)c(-c2cn(C)c(=O)c3[nH]ccc23)c1)S(C)(=O)=O [Compound I-51]
GI50 [1]: < 500 nM | Kd (BRD4-BD2): 500 to 2500 nM | Kd (BRD4-BD1): > 2500 nM | GI50 [2]: < 500 nM | GI50 (VCaP cells; Homo sapiens): < 500 nM

CCS(=O)(=O)Cc1ccc(Oc2cccc(CCCN3CCN(c4ncc(C(=O)N[C@H]5C(C)(C)[C@H](Oc6ccc(C#N)c(Cl)c6)C5(C)C)cn4)CC3)c2F)c(-c2cn(C)c(=O)c3[nH]ccc23)c1 [Compound I-144]
GI50 [1]: < 500 nM | Kd (BRD4-BD2): < 50 nM | Kd (BRD4-BD1): 50 to 500 nM | GI50 [2]: < 500 nM | GI50 (VCaP cells): < 500 nM

CCS(=O)(=O)c1ccc(Oc2cccc(OCCN3CCN(c4ncc(C(=O)N[C@H]5C(C)(C)[C@H](Oc6ccc(C#N)c(Cl)c6)C5(C)C)cn4)CC3)c2F)c(-c2cn(C)c(=O)c3[nH]ccc23)c1 [Compound I-207]
GI50 [1]: < 500 nM | GI50 [2]: < 500 nM | GI50 [3]: < 500 nM | GI50 [4]: < 500 nM | GI50 (VCaP cells): < 500 nM

CN(c1ccc(Oc2cccc(OCCOC3CCN(c4ncc(C(=O)N[C@H]5C(C)(C)[C@H](Oc6ccc(C#N)c(Cl)c6)C5(C)C)cn4)CC3)c2)c(-c2cn(C)c(=O)c3[nH]ccc23)c1)S(=O)(=O)C1CC1 [Compound I-49]
GI50 [1]: < 500 nM | Kd (BRD4-BD2): 500 to 2500 nM | Kd (BRD4-BD1): > 2500 nM | GI50 [2]: > 3000 nM | GI50 (VCaP cells; Homo sapiens): < 500 nM

CCS(=O)(=O)Nc1ccc(Oc2cccc(OCCOC3CCN(c4ncc(C(=O)N[C@H]5C(C)(C)[C@H](Oc6ccc(C#N)c(Cl)c6)C5(C)C)cn4)CC3)c2F)c(-c2cn(C)c(=O)c3[nH]ccc23)c1 [Compound I-64]
GI50 [1]: < 500 nM | Kd (BRD4-BD2): < 50 nM | Kd (BRD4-BD1): > 2500 nM | GI50 [2]: < 500 nM | GI50 (VCaP cells; Homo sapiens): < 500 nM

CCS(=O)(=O)Nc1ccc(Oc2cccc(OCCOCCOCCOCCOCCOCCOCCOC3CCN(c4ncc(C(=O)N[C@H]5C(C)(C)[C@H](Oc6ccc(C#N)c(Cl)c6)C5(C)C)cn4)CC3)c2)c(-c2cn(C)c(=O)c3[nH]ccc23)c1 [Compound I-9]
GI50 [1]: < 500 nM | Kd (BRD4-BD2): < 50 nM | Kd (BRD4-BD1): 50 to 500 nM | GI50 [2]: 500 to 1500 nM | GI50 (VCaP cells; Homo sapiens): < 500 nM

CCS(=O)(=O)Nc1ccc(Oc2ccc(CCOC3CCN(c4ncc(C(=O)N[C@H]5C(C)(C)[C@H](Oc6ccc(C#N)c(Cl)c6)C5(C)C)cn4)CC3)cc2)c(-c2cn(C)c(=O)c3[nH]ccc23)c1 [Compound I-151]
GI50 [1]: < 500 nM | Kd (BRD4-BD2): < 50 nM | Kd (BRD4-BD1): 50 to 500 nM | GI50 [2]: < 500 nM | GI50 (VCaP cells; Homo sapiens): < 500 nM

CCS(=O)(=O)c1ccc(Oc2cccc(OCCCC3CCN(c4ncc(C(=O)N[C@H]5C(C)(C)[C@H](Oc6ccc(C#N)c(Cl)c6)C5(C)C)cn4)CC3)c2F)c(-c2cn(C)c(=O)c3[nH]ccc23)c1 [Compound I-140]
GI50 [1]: < 500 nM | Kd (BRD4-BD2): > 2500 nM | Kd (BRD4-BD1): > 2500 nM | GI50 [2]: < 500 nM | GI50 (VCaP cells; Homo sapiens): 1500 to 3000 nM

CCS(=O)(=O)Nc1ccc(OCC(OCCCOC2CCN(c3ncc(C(=O)N[C@H]4C(C)(C)[C@H](Oc5ccc(C#N)c(Cl)c5)C4(C)C)cn3)CC2)C2CC2)c(-c2cn(C)c(=O)c3[nH]ccc23)c1 (some centres unmarked) [Compound I-187]
GI50 [1]: < 500 nM | Kd (BRD4-BD2): 500 to 2500 nM | Kd (BRD4-BD1): 50 to 500 nM | GI50 [2]: > 3000 nM | GI50 (VCaP cells): < 500 nM
